From patent publication US20260191864A1, “Uses of Hydroimidazopyridopyrimidinone Derivatives for Managing Aneurysms or Other Vascular Conditions or Diseases” (Emory University, priority 2022, published 2026)

What was measured:
aortic aneurysms = settings: mice; aortic diameter at day 14 vs baseline (FIGS. 1A-1C)
Description: It is contemplated that VSMC phenotypic modulation is responsible for foam cell formation during atherosclerosis.
Data represents percentage of maximal aortic dilation on day 14 of each animal. The recording and subsequent analysis were blinded to the assignment of the treatment regimen.
Images were quantified using ImageJ plus/color deconvolution plugin.

vascular smooth muscle = vascular smooth muscle differentiation in vivo (ACTA2 smooth muscle actin staining); settings: mice, ACTA2 staining (FIG. 1D)

Question: Which results are given for Cc1ccccc1CN1C(=O)C2=C(CCN(Cc3ccccc3)C2)N2CCN=C12 [ONC201, 7-benzyl-4-(2-methylbenzyl)-2,4,6,7,8,9-hexahydroimidazo[1,2-a]pyrido[3,4-e]pyrimidin-5 (1H)-one]?
Answer: formation of aortic aneurysms (aortic aneurysms): inhibits the formation of aortic aneurysms in mice; vascular smooth muscle differentiation (vascular smooth muscle): induces vascular smooth muscle differentiation in vivo
